{"source": "patent US5892063A", "about": "(Hauser, Inc., priority 1997, dated 1999)", "origin": "cited, not measured here", "key": {"[1]": {"tested_on": "murine and human tumor cell lines", "details": "cited from earlier work"}, "tumor models": {"tested_on": "tumor models", "details": "vs paclitaxel, cisplatin, cyclophosphamide, doxorubicin; same tumor models; cited from earlier work"}, "[2]": {"tested_on": "murine and human xenografts", "details": "cited from earlier work"}, "[3]": {"details": "cited from earlier work"}, "microtubule": {"tested_on": "microtubule", "details": "relative to paclitaxel; cited from earlier work"}}}
{"smiles": "CC(=O)O[C@@]12CO[C@@H]1C[C@H](O)[C@@]1(C)C(=O)[C@H](O)C3=C(C)[C@@H](OC(=O)[C@H](O)[C@@H](NC(=O)OC(C)(C)C)c4ccccc4)C[C@@](O)([C@@H](OC(=O)c4ccccc4)[C@H]21)C3(C)C", "note": "[Docetaxel, docetaxel]", "values": [{"measurement": "in vitro cytotoxicity", "setting": "[1]", "result": "impressive"}, {"measurement": "cytotoxic activity vs other antineoplastic agents", "setting": "tumor models", "result": "higher cytoxic activity than other antineoplastic agents"}, {"measurement": "in vivo preclinical activity", "setting": "[2]", "result": "impressive"}, {"measurement": "aqueous solubility", "setting": "[3]", "result": "low aqueous solubility"}, {"measurement": "potency as inhibitor of microtubule depolymerization vs paclitaxel", "setting": "microtubule", "result": "twice as potent"}]}
